Experiments:
human mGluR2 receptor = target: T1, human mGluR2 receptor (Homo sapiens, UniProt Q14416); assay: Functional in vitro activity at human mGluR2 receptor (FLIPR calcium response, potentiator mode); type: cell-based; settings: relative EC50; potentiation of glutamate EC10 response; cells expressing human mGluR2, rat EAAT 1 and Gα15
T1 construct: expressed in transfected cells; stably expresses human mGluR2, co-transfected with rat EAAT1 and Galpha15
Excerpt: Functional in vitro activity at human mGluR2 receptor Cell lines stably expressing the human mGluR2 receptor (see for example Desai, Burnett, Mayne, Schoepp, Mol. Pharmacol. 48, 648-657, 1995) co-transfected with the rat glutamate transporter EAAT 1 (Excitatory Amino Acid Transporter 1) and the Gα15 subunit were used for these studies. The expression of Gα15 allows this Gi-coupled receptors to couple to phospholipase C, resulting in the ability to measure receptor activation by a fluorometric calcium response assay. […]
Intracellular calcium levels were monitored before and after the addition of compounds using a Fluorometric Imaging Plate Reader (FLIPR, Molecular Devices, Union City, Calif. USA). […] The results were analyzed (GraphPad® Prism v4, Graphpad Software, LaJolla, Calif., USA) to calculate the concentrations of glutamate needed to induce the EC10 responses.
Compounds were tested in a two-addition FLIPR assay using a 10-point concentration response profile starting at a final concentration of 25 μM (agonist mode) or 12.5 μM (potentiator mode). […] After taking an initial fluorescent read of the cell plate for 5 seconds, compound was added to the cell plate (50 uL per well). […]
The maximal response was defined as that induced by ECmax (100 μM glutamate). […] Agonist effects were quantified as percent stimulation induced by compound alone relative to the maximal glutamate response. […]

[1] = system: Male Holtzman Sprague-Dawley rats; assay: Positive differential reinforcement in rats (DRL-72 second schedule); type: in vivo, rat; settings: reinforced responses divided by total responses, 10 mg/kg, IP, dose 0 group 0.25
Excerpt: The differential reinforcement of low rates-72 second (DRL-72) schedule has been extensively used as a screen for clinically effective antidepressant agents including imipramine, fluoxetine, paroxetine and others (Sokolowski J D, Seiden L S. 1999. The behavioral effects of sertraline, fluoxetine, and paroxetine differ on the differential-reinforcement-of-low-rate 72-second operant schedule in the rat. Psychopharm (Berl). 147(2): 153-61). […] As such, compounds which show positive result in differential reinforcement in animals are believed to be useful in treating depression in humans.
Male Holtzman Sprague-Dawley rats are water restricted (water available 20′ per day following the test session) and trained to lever press for a 4″ access to 0.025 ml of water for each correct response during daily 60 minute sessions. All testing takes place on weekdays only. After successful lever press training, rats are then required to respond under a DRL-24 second schedule, where only lever presses that are separated by 24 seconds are reinforced. Upon stable responding on a DRL-24 second schedule, rats are trained on a DRL-72 second schedule until responding stabilizes at approximately 15% efficiency. […] Response efficiency is recorded as number of reinforced responses divided by total number of responses. […]

Male Fischer F-344 rats = assay: Attenuation of stress-induced hyperthermia in rats; type: in vivo, rat; settings: p.o., 4 hr pretreatment
Excerpt: In many anxiety disorders, hyperthermia occurs as part of the pathology and is considered a symptom of the disease. Compounds which attenuate stress-induced hyperthermia in animals are believed to be useful in treating anxiety disorders in humans.
The conventional and minimally-invasive method for analyzing stress-induced hyperthermia is by measuring body temperature, and stress-induced increases in body temperature, via rectal thermometer. Male Fischer F-344 rats (Harlan, Indianapolis, Ind., USA) weighing between 275-350 g are tested. All animals are individually-housed with food and automated water available ad libitum, and maintained on a 12 h light/dark cycle (lights on at 06:00). Animals are fasted for approximately 12-18 hours before the experiment, which is conducted during the light phase. […]
After the pretreatment period, rats are taken individually to a brightly lit adjacent room where baseline body temperatures are determined by insertion of a rectal probe lubricated with mineral oil. Body temperature is assessed using a PHYSITEMP BAT-12® Microprobe Thermometer with a PHYSITEMP RET-2® rat rectal probe (Physitemp Instruments Inc., Clifton, N.J., USA). […] Ten minutes later a second body temperature measurement is recorded (T2). […]

T1 sequence (Q14416 19-872): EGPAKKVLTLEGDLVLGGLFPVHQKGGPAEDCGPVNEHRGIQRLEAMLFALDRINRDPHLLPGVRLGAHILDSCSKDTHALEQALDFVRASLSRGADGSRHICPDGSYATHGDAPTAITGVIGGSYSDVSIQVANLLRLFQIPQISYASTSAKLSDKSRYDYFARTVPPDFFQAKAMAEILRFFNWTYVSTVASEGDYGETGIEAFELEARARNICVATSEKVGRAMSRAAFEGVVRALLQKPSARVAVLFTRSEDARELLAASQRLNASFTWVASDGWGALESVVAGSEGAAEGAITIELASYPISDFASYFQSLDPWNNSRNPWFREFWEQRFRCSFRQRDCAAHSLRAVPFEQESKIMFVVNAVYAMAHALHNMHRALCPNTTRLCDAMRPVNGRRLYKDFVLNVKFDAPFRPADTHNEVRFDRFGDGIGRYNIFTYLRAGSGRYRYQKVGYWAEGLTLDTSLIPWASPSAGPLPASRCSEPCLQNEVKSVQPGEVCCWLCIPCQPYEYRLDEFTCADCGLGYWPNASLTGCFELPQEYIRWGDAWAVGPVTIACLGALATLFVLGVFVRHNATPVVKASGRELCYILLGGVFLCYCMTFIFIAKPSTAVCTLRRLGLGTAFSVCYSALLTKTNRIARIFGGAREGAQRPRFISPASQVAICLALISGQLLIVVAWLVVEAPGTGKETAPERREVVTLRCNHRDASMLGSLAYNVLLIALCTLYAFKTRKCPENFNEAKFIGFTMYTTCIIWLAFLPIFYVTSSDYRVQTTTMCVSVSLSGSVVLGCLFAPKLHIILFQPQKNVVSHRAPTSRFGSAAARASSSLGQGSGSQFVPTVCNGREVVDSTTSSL

## CC(C)C(=O)c1ccc(OCc2ccc(CNC(=O)c3cn(C)cn3)cc2)c(C(F)(F)F)c1O [Example 1, 1-Methyl-1H-imidazole-4-carboxylic acid 4-(3-hydroxy-4-isobutyryl-2-trifluoromethyl-phenoxymethyl)-benzylamide]
other
  melting point: 164.7 °C
Human mGluR2 receptor
  EC50: 0.0225 µM
[1]
  Response Efficiency: 0.56
Male Fischer F-344 rats
  T35 dose (dose producing a 35% reduction in stress-induced hyperthermic response relative to vehicle): 3.2 mg/kg

From patent US7754742B2, “Imidazole carboxamides” (Eli Lilly and Company, priority 2008, dated 2010)
